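Cultured in 96-well plates, cells were exposed to test compound for 48 hours across five concentrations. GI50: concentration for 50% inhibition of growth. TGI is the concentration that stops growth completely.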
What was measured:
Experiment in all cases: NCI anticancer screen, dose series, 48 h
OVCAR-3 ovarian = system: OVCAR-3 ovarian
T-47D breast = system: T-47D breast
OVCAR-4 ovarian = system: OVCAR-4 ovarian
SR leukemia = system: SR leukemia
NCI-H23 lung = system: NCI-H23 lung
SF-268 CNS = system: SF-268 CNS
OVCAR-5 ovarian = system: OVCAR-5 ovarian
HCT-15 colon = system: HCT-15 colon
DU-145 prostate = system: DU-145 prostate

Row | SMILES | TGI (OVCAR-3 ovarian) | TGI (T-47D breast) | TGI (OVCAR-4 ovarian) | TGI (SR leukemia) | TGI (NCI-H23 lung) | TGI (SF-268 CNS) | TGI (OVCAR-5 ovarian) | TGI (HCT-15 colon) | TGI (DU-145 prostate) | GI50 (OVCAR-3 ovarian) | GI50 (T-47D breast) | GI50 (OVCAR-4 ovarian) | GI50 (SR leukemia) | GI50 (NCI-H23 lung) | GI50 (SF-268 CNS) | GI50 (OVCAR-5 ovarian) | GI50 (HCT-15 colon) | GI50 (DU-145 prostate)
1 | CN(C)CC1CCC/C(=C\c2ccc(OC(=O)/C=C/c3ccc(Cl)c(Cl)c3)cc2)C1=O (stereo not given) | 14.6 µM | 6.75 µM | > 60.3 µM | 3.54 µM | 14.4 µM | 36.1 µM | > 65.3 µM | 6.84 µM | > 93.3 µM | – | – | – | – | – | – | – | – | –
2 | CN(C)CCNC(=O)c1ccc(Cl)c2cc3ccccc3nc12 | 6.88 µM | 12.1 µM | 3.34 µM | 3.03 µM | 2.08 µM | 5.05 µM | 10.7 µM | 7.15 µM | 6.2 µM | – | – | – | – | – | – | – | – | –
3 | Cc1cc(N2CCCC2)c([N+](=O)[O-])cc1[N+](=O)[O-] | > 100 µM | > 100 µM | > 100 µM | > 100 µM | > 100 µM | > 100 µM | – | > 100 µM | > 100 µM | – | – | – | – | – | – | – | – | –
4 | COCC12CCC(OC)C34C5CC6(O)C(OC)CC(OC(C)=O)(C5C6OC(=O)c5ccccc5)C(C(OC)C13)C4N(C)C2 (stereo not given) | > 100 µM | > 100 µM | > 100 µM | > 100 µM | > 100 µM | > 100 µM | > 100 µM | > 100 µM | > 100 µM | – | – | – | – | – | – | – | – | –
5 | COc1ccc([C@]23CCN4COC[C@@H]([C@H]42)C2(CC3)OCC(C)(C)CO2)cc1OC | – | > 100 µM | > 100 µM | > 100 µM | > 100 µM | > 100 µM | > 100 µM | > 100 µM | > 100 µM | – | – | – | – | – | – | – | – | –
6 | COc1cc(CCN(C)C)cc(OC)c1OC | > 100 µM | > 100 µM | > 100 µM | > 100 µM | > 100 µM | > 100 µM | > 100 µM | > 100 µM | > 100 µM | – | – | – | – | – | – | – | – | –
7 | O=C(c1ccc(O)c([N+](=O)[O-])c1)c1ccc(O)c([N+](=O)[O-])c1 | > 100 µM | > 100 µM | > 100 µM | – | > 100 µM | > 100 µM | > 100 µM | > 100 µM | > 100 µM | – | – | – | – | – | – | – | – | –
8 | O=C1/C(=C/c2ccccc2)NC(=S)N1CN1CCCCC1 | > 100 µM | – | 92.6 µM | > 100 µM | > 100 µM | > 100 µM | > 100 µM | > 100 µM | > 100 µM | – | – | – | – | – | – | – | – | –
9 | O=C(C(Cl)=C(N1CCCCC1)N1CCCCC1)C(Cl)Cl | > 100 µM | > 100 µM | > 100 µM | > 100 µM | > 100 µM | > 100 µM | – | > 100 µM | > 100 µM | – | – | – | – | – | – | – | – | –
10 | Cc1c2ccccc2c(C)n2c1nc1ccccc12 | 21.8 µM | 89.6 µM | – | > 100 µM | 30.7 µM | 30 µM | 48.3 µM | 65.7 µM | > 100 µM | – | – | – | – | – | – | – | – | –
11 | C=Cc1nc(C#N)c(N)o1 | > 100 µM | > 100 µM | > 100 µM | – | > 100 µM | > 100 µM | > 100 µM | > 100 µM | > 100 µM | – | – | – | – | – | – | – | – | –
12 | COc1cccc(C2SC(C)C(=O)N2CCc2cccs2)c1 (stereo not given) | 7.6 µM | 11.6 µM | 11.2 µM | 15.5 µM | 12.1 µM | 13 µM | 20 µM | 12.5 µM | 14.9 µM | 2.04 µM | 1.78 µM | 2.25 µM | 2.5 µM | 2.62 µM | 2.72 µM | 4.05 µM | 2.75 µM | 3.95 µM
13 | COc1ccc2c(c1)c1nn(CCN3CCCCC3)c3ccc4c(=O)n(CCN(C)C)c(=O)n2c4c13 | 0.344 µM | 0.454 µM | 0.0158 µM | – | 0.627 µM | 0.0766 µM | 0.126 µM | 0.0825 µM | 0.132 µM | – | – | – | – | – | – | – | – | –
14 | COC(=O)C1=CON2C3CC4CC(C3)CC(C4)C12C (stereo not given) | > 100 µM | > 100 µM | > 100 µM | > 100 µM | > 100 µM | > 100 µM | > 100 µM | > 100 µM | > 100 µM | – | – | – | – | – | – | – | – | –
15 | COC([C@@H](OC(=O)c1ccccc1)[C@H](OC(=O)c1ccccc1)C(O)COC(=O)c1ccccc1)n1cc(C)c(=O)[nH]c1=O (stereo not given in full) | 97.1 µM | > 100 µM | 82.4 µM | > 100 µM | > 100 µM | > 100 µM | 62.6 µM | > 100 µM | > 100 µM | – | – | – | – | – | – | – | – | –
16 | COc1ccc2[nH]c(C(=O)N3CC(CCl)c4c3cc(N)c3ccccc43)cc2c1 (stereo not given) | > 100 µM | < 0.0281 µM | < 0.01 µM | – | < 0.0109 µM | < 0.01 µM | 0.315 µM | 1.15 µM | < 0.01 µM | – | – | – | – | – | – | – | – | –
17 | CCOC(=O)C(NC(=O)CC)(Nc1ccc(F)c(Cl)c1)C(F)(F)F (stereo not given) | > 100 µM | > 100 µM | > 100 µM | > 100 µM | – | > 100 µM | > 100 µM | > 100 µM | > 100 µM | – | – | – | – | – | – | – | – | –
18 | CCOC(=O)C(=O)CC(=O)C1=C(c2ccccc2OC)CC(c2cccs2)=CC1=O | > 100 µM | > 100 µM | – | – | > 100 µM | > 100 µM | > 100 µM | > 100 µM | > 100 µM | – | – | – | – | – | – | – | – | –
19 | CC(=O)OC(C)c1cc2c(s1)C(=O)c1c(C(C)OC(C)=O)csc1C2=O (stereo not given) | 0.724 µM | 5.52 µM | 2.75 µM | > 100 µM | 2.29 µM | 13.2 µM | 3.41 µM | 4.4 µM | 1.86 µM | 0.278 µM | – | – | – | 0.878 µM | – | – | – | –
20 | CNC(=S)NNc1ncnc2c1ncn2-c1ccc(C)cc1 | > 100 µM | > 100 µM | > 100 µM | > 100 µM | > 100 µM | > 100 µM | > 100 µM | > 100 µM | > 100 µM | – | – | – | – | – | – | – | – | –
21 | N#CC[N+]1(Cc2ccccn2)CCCC1 | > 100 µM | > 100 µM | > 100 µM | – | > 100 µM | > 100 µM | > 100 µM | > 100 µM | > 100 µM | – | – | – | – | – | – | – | – | –
22 | COC12C=CC(C=C1C#N)CC2 (stereo not given) (tested in a mixture with another compound) | > 100 µM | > 100 µM | > 100 µM | > 100 µM | > 100 µM | > 100 µM | > 100 µM | > 100 µM | > 100 µM | – | – | – | – | – | – | – | – | –
23 | Cc1cc(N(CCC#N)CCC#N)ccc1/C=C1\SC(=S)NC1=O | > 100 µM | > 100 µM | > 100 µM | > 100 µM | > 100 µM | > 100 µM | > 100 µM | > 100 µM | > 100 µM | – | – | – | – | – | – | – | – | –

Source: PubChem BioAssay (NCI)
